Reference: patent US9006440B2, “Furopyridine derivatives” (Merck Patent GmbH, priority 2010, dated 2015)

Columns and labels:
Assay type in all cases: biochemical
BTK = biological target: T1, BTK (Homo sapiens, UniProt Q06187); experiment: BTK enzymatic assay (Caliper LifeSciences technology)
T1 construct: purchased Carna Bioscience, Kobe, Japan
Method: (§1) The assays described here are performed on the Caliper Life Sciences LC3000 system This technology provides data on enzyme activity via measurement of the relative amounts of phosphorylated or unphosphorylated fluorescently labelled substrate peptide at the end of an enzymatic reaction. These different states of peptide are resolved by applying a potential difference across the sample. The presence of the charged phosphate group on the product (as opposed to the substrate) causes a different peptide mobility between the two peptides. This is visualized by excitation of the fluorescent label on the substrate and product peptides and represented as peaks within the analysis software.
(§2) In order to measure inhibitor activity of kinase inhibitors on this technology, a TTP Mosquito liquid handling instrument is used to place 0.25 ul of the appropriate concentration of inhibitor in 100% DMSO (for a dose response curve calculation) into each well of a 384-well plate. To this reaction components are added to a final volume of 25 ul. The table below indicates the sequences and concentrations for the assays described in this report. Standard components are 1 mM DTT (Sigma, D0632), 1 mM MgCl2 (Sigma, M1028), 100 mM HEPES pH 7.5 (Calbiochem, 391338), 0.015% Brij-35 (Sigma, B4184).
(§3) The reaction is incubated for 90 min at 25 C, and then stopped by the addition of 70 ul of Stop buffer (100 mM HEPES pH 7.5, 0.015% Brij-35, 10 mM EDTA (Sigma, E7889)).
(§4) The plate is read on a Caliper LC 3000 in an Off-Chip mobility shift assay format, on a 12-sipper chip. Unphosphorylated substrate and phosphorylated product peptide resolve as separate peaks allowing direct measurement of percentage of conversion of substrate to product. The percent conversion can be plotted against concentration of inhibitor to produce a sigmoidal dose response curve, from which an IC50 can be calculated using GeneData Condoseo or a similar product.

Syk = biological target: T2, Syk (Homo sapiens, UniProt P43405); experiment: Syk enzyme assay (SYK flash plate assay / Caliper mobility shift)
T2 construct: purchased BPS Bioscience, CA, USA
Outline: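 Flashplate format: 2.5 nM SYK, 400 nM biotinylated peptide, 10 μM ATP with 33P-ATP, pH 7.5, 1 h at 30 °C; radioactivity read, staurosporine background. Caliper format: 90 min at 25 °C, mobility-shift read of substrate-to-product conversion; IC50 from dose-response curve.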

KDR = biological target: T3, KDR (Homo sapiens, UniProt P35968); experiment: KDR enzymatic assay (Caliper LifeSciences technology)
T3 construct: purchased BPS Bioscience, CA, USA
Method: as §1, §2, §3, §4

SRC = biological target: T4, SRC (Homo sapiens, UniProt P12931); experiment: Src enzymatic assay (Caliper LifeSciences technology)
T4 construct: purchased Carna Bioscience, Kobe, Japan
Method: as §1, §2, §3, §4

T3 sequence (P35968 20-1356): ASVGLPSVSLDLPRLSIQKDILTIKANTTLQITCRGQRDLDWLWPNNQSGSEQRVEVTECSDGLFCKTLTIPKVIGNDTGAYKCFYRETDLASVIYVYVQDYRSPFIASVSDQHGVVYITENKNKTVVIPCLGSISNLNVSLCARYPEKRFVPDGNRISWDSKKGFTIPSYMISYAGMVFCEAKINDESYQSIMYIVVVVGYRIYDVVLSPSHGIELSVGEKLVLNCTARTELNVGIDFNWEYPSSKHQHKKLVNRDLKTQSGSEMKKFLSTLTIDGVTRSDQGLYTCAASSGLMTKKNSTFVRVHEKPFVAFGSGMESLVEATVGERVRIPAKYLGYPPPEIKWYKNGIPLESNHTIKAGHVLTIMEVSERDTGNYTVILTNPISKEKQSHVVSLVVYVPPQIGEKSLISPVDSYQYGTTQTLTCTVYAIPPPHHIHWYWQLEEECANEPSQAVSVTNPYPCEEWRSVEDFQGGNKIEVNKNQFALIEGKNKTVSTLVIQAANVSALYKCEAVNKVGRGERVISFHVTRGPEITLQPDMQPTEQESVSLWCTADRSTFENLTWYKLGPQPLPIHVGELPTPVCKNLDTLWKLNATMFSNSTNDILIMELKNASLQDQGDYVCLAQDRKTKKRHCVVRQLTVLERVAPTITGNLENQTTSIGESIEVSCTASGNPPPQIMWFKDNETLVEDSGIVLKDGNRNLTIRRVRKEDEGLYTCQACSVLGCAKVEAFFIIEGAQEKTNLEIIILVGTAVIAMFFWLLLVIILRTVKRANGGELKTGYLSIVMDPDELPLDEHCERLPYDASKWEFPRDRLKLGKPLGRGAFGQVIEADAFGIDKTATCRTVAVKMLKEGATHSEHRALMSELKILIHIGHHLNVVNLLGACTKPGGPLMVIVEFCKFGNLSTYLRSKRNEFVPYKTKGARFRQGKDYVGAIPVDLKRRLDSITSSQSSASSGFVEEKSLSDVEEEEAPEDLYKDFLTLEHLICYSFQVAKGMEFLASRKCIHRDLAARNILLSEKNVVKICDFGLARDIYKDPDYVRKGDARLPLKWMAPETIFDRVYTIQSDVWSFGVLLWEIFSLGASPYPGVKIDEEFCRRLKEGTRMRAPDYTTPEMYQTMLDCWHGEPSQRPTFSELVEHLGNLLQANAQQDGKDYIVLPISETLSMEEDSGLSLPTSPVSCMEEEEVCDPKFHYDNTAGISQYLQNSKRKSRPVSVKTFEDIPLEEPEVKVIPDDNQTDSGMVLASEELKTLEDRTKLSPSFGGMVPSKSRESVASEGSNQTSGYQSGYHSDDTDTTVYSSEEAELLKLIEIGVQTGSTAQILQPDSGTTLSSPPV
T4 sequence (P12931 whole entry): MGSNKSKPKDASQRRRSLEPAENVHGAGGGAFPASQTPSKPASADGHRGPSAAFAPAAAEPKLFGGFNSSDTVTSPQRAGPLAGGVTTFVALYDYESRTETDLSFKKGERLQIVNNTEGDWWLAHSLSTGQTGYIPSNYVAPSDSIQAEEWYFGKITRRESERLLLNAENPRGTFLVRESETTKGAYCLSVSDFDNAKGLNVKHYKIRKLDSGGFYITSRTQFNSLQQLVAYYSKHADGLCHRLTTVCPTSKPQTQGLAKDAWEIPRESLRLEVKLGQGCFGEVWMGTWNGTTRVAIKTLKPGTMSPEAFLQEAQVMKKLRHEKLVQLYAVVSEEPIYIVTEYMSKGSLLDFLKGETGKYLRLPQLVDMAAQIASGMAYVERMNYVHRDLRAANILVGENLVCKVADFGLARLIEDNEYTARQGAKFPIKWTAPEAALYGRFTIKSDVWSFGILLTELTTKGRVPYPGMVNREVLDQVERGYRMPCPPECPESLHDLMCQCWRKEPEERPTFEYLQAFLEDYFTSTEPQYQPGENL
T1 sequence (Q06187 whole entry): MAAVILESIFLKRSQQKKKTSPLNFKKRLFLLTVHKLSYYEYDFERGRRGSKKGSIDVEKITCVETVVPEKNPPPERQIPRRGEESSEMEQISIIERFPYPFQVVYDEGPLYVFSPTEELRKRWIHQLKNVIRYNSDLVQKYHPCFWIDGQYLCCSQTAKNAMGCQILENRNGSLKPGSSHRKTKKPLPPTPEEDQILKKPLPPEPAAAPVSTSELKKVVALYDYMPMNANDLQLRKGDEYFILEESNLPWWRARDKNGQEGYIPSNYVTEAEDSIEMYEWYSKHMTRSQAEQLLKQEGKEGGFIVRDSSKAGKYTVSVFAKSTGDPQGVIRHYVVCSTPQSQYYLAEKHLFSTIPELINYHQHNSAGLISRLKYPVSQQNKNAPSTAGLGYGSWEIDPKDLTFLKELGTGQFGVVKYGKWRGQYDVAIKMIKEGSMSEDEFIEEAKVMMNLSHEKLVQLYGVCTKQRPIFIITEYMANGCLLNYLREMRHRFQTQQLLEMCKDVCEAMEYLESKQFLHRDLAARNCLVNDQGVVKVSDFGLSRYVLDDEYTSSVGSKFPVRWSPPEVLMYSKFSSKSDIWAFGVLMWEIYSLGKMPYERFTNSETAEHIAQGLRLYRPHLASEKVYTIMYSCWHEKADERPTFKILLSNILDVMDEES

| SMILES | IC50 (BTK) [µM] | IC50 (Syk) [µM] | IC50 (KDR) [µM] | IC50 (SRC) [µM] |
| --- | --- | --- | --- | --- |
| Cc1cc2nccc(Oc3cccc(NC(=O)CCl)c3)c2o1 [Compound D27, 2-Chloro-N-[3-(2-methyl-furo[3,2-b]pyridin-7-yloxy)-phenyl]-acetamide] | < 0.3 |  |  |  |
| COc1cc(-c2cc3nccc(-c4cccc5[nH]ccc45)c3o2)cc(OC)c1OC [Compound A20, 7-(1H-Indol-4-yl)-2-(3,4,5-trimethoxy-phenyl)-furo[3,2-b]pyridine] |  | < 0.3 | 3 to 50 | 0.3 to 3 |
| COc1cc(-c2cc3nccc(-c4c[nH]nc4C)c3o2)cc(OC)c1OC [Compound C127] |  | < 0.3 | 0.3 to 3 | 0.3 to 3 |
| COc1cc(-c2cc3nccc(-c4cccc(CNC(C)=O)c4)c3o2)cc(OC)c1OC [Compound A52, N-[[3-[2-(3,4,5-trimethoxyphenyl)furo[3,2-b]pyridin-7-yl]phenyl]methyl]-acetamide] |  | < 0.3 | 3 to 50 | 3 to 50 |
| O=C(CCl)Nc1cccc(Oc2ccnc3cc(-c4ccccc4)oc23)c1 [Compound D20, 2-Chloro-N-[3-(2-phenyl-furo[3,2-b]pyridin-7-yloxy)-phenyl]-acetamide] | < 0.3 |  |  |  |
| CCC(=O)Nc1cccc(-c2ccnc3cc(C)oc23)c1 [Compound D29, N-[3-(2-Methyl-furo[3,2-b]pyridin-7-yl)-phenyl]-propionamide] | 3 to 50 |  |  |  |
| COc1cc(-c2cc3nccc(-c4cccc(OCCN)c4)c3o2)cc(OC)c1OC [Compound A38, 2-{3-[2-(3,4,5-Trimethoxy-phenyl)-furo[3,2-b]pyridin-7-yl]-phenoxy}-ethylamine] |  | < 0.3 | 0.3 to 3 | 3 to 50 |
| Cc1cc(C)cc(-c2cc3nccc(Nc4ccc5[nH]ccc5c4C)c3o2)c1 [Compound B52, [2-(3,5-Dimethyl-phenyl)-furo[3,2-b]pyridin-7-yl]-(4-methyl-1H-indol-5-yl)-amine] |  | 0.3 to 3 | 0.3 to 3 | 0.3 to 3 |
| COc1cccc(-c2cc3nccc(Nc4ccc5[nH]ccc5c4C)c3o2)c1 [Compound B57, [2-(3-Methoxy-phenyl)-furo[3,2-b]pyridin-7-yl]-(4-methyl-1H-indol-5-yl)-amine] |  | 0.3 to 3 | < 0.3 | < 0.3 |
| COc1ccc(-c2cc3nccc(-c4ccccc4)c3o2)cc1NC(=O)[C@@H]1C[C@@H](O)CN1 [Compound C40] |  | 0.3 to 3 | 0.3 to 3 | 3 to 50 |
| C=CC(=O)Nc1cccc(-c2cc3nccc(Oc4cccc(Cl)c4)c3o2)c1 [Compound D9, N-{3-[7-(3-Chloro-phenoxy)-furo[3,2-b]pyridin-2-yl]-phenyl}-acrylamide] | 3 to 50 |  |  |  |
| Cc1noc(C)c1-c1cc2nccc(-c3c(C)noc3C)c2o1 [Compound B41, 2,7-Bis-(3,5-dimethyl-isoxazol-4-yl)-furo[3,2-b]pyridine] |  | 3 to 50 | 3 to 50 | 3 to 50 |
| C=CC(=O)Nc1cccc(Oc2ccnc3cc(-c4ccccc4)oc23)c1 [Compound D19, N-[3-(2-Phenyl-furo[3,2-b]pyridin-7-yloxy)-phenyl]-acrylamide] | 0.3 to 3 |  |  |  |
| Cc1c(Nc2ccnc3cc(-c4ccc(N5CCOCC5)cc4)oc23)ccc2[nH]ccc12 [Compound B54] |  | 0.3 to 3 | 0.3 to 3 | < 0.3 |
| Cc1c(Nc2ccnc3cc(-c4ccc5c(c4)OCCO5)oc23)ccc2[nH]ccc12 [Compound B60, [2-(2,3-Dihydro-benzo[1,4]dioxin-6-yl)-furo[3,2-b]pyridin-7-yl]-(4-methyl-1H-indol-5-yl)-amine] |  | 0.3 to 3 | 0.3 to 3 | < 0.3 |
| COc1cc(-c2cc3nccc(-c4cnc5c(c4)CCCO5)c3o2)cc(OC)c1OC [Compound C113] |  | < 0.3 | 0.3 to 3 | 0.3 to 3 |
| COc1c(C)cc(-c2cc3nccc(Nc4ccc5[nH]ccc5c4C)c3o2)cc1C [Compound B49, [2-(4-Methoxy-3,5-dimethyl-phenyl)-furo[3,2-b]pyridin-7-yl]-(4-methyl-1H-indol-5-yl)-amine] |  | 0.3 to 3 | 0.3 to 3 | < 0.3 |

| SMILES | IC50 (BTK) [µM] | IC50 (Syk) [µM] | IC50 (KDR) [µM] | IC50 (SRC) [µM] |
| --- | --- | --- | --- | --- |
| Cc1cccc(-c2cc3nccc(Nc4ccc5[nH]ccc5c4C)c3o2)c1 [Compound B51, (4-Methyl-1H-indol-5-yl)-(2-m-tolyl-furo[3,2-b]pyridin-7-yl)-amine] |  | 3 to 50 | 0.3 to 3 | 0.3 to 3 |
| COc1cc(-c2cc3nccc(-c4cc(OC(F)(F)F)cc(C(=O)O)c4)c3o2)cc(OC)c1OC [Compound C163] |  | < 0.3 | 0.3 to 3 | 0.3 to 3 |
| COc1cc(-c2cc3nccc(-c4cc(OC(C)C)cc(C(=O)O)c4)c3o2)cc(OC)c1OC [Compound C155] |  | < 0.3 | 0.3 to 3 | 0.3 to 3 |
| COc1cc(-c2cc3nccc(Nc4ccc(Sc5nccn5C)c(Cl)c4)c3o2)cc(OC)c1OC [Compound B16, [3-Chloro-4-(1-methyl-1H-imidazol-2-ylsulfanyl)-phenyl]-[2-(3,4,5-trimethoxy-phenyl)-furo[3,2-b]pyridin-7-yl]-amine] |  | 3 to 50 | 3 to 50 | 3 to 50 |
| Cc1noc(C)c1-c1cc2nccc(Nc3ccc4[nH]ccc4c3C)c2o1 [Compound B63, [2-(3,5-Dimethyl-isoxazol-4-yl)-furo[3,2-b]pyridin-7-yl]-(4-methyl-1H-indol-5-yl)-amine] |  | 0.3 to 3 | < 0.3 | < 0.3 |
| COc1cc(-c2cc3nccc(-c4cc(OC)c(OC)c(OC)c4)c3o2)cc(OC)c1OC [Compound B24, 2,7-Bis-(3,4,5-trimethoxy-phenyl)-furo[3,2-b]pyridine] |  | < 0.3 | 3 to 50 | 3 to 50 |
| COc1ccc(-c2cc3nccc(Nc4ccc5[nH]ccc5c4C)c3o2)cc1OC [Compound B53, [2-(3,4-Dimethoxy-phenyl)-furo[3,2-b]pyridin-7-yl]-(4-methyl-1H-indol-5-yl)-amine] |  | < 0.3 | < 0.3 | < 0.3 |
| COc1cc(-c2cc3nccc(-c4cccc(CN)c4)c3o2)cc(OC)c1OC [Compound A51, 3-[2-(3,4,5-Trimethoxy-phenyl)-furo[3,2-b]pyridin-7-yl]-benzylamine] |  | < 0.3 | 0.3 to 3 | 3 to 50 |
| Cc1c(Nc2ccnc3cc(-c4ccc5c(c4)OCO5)oc23)ccc2[nH]ccc12 [Compound B48] |  | 0.3 to 3 | 0.3 to 3 | < 0.3 |
| COc1ccc(OC)c(-c2cc3nccc(-c4cccc(C(=O)N[C@@H]5CCCC[C@@H]5N)c4)c3o2)c1 [Compound C178] |  | < 0.3 | 0.3 to 3 | < 0.3 |
| Cc1c(Nc2ccnc3cc(-c4ccc(OCCCN(C)C)cc4)oc23)ccc2[nH]ccc12 [Compound B58, {2-[4-(3-Dimethylamino-propoxy)-phenyl]-furo[3,2-b]pyridin-7-yl}-(4-methyl-1H-indo-5-yl)-amine] |  | 0.3 to 3 | < 0.3 | < 0.3 |
| COc1ccc(O)cc1-c1ccnc2cc(-c3cc(OC)c(OC)c(OC)c3)oc12 [Compound C136] |  | < 0.3 | 0.3 to 3 | 0.3 to 3 |
| Cc1ccc(-c2cc3nccc(Nc4ccc5[nH]ccc5c4C)c3o2)cc1 [Compound B46, (4-Methyl-1H-indol-5-yl)-(2-p-tolyl-furo[3,2-b]pyridin-7-yl)-amine] |  | 3 to 50 | 0.3 to 3 | < 0.3 |
| COc1ccc(-c2cc3nccc(Nc4ccc5[nH]ccc5c4C)c3o2)c(OC)c1OC [Compound B56] |  | 0.3 to 3 | < 0.3 | < 0.3 |
| COc1ccc(-c2cc3nccc(Nc4ccc5[nH]ccc5c4C)c3o2)cc1C [Compound B50, [2-(4-Methoxy-3-methyl-phenyl)-furo[3,2-b]pyridin-7-yl]-(4-methyl-1H-indol-5-yl)-amine] |  | 0.3 to 3 | 0.3 to 3 | 0.3 to 3 |
| COc1cccc(-c2cc3nccc(Nc4ccc5[nH]ccc5c4C)c3o2)c1OC [Compound B59, [2-(2,3-Dimethoxy-phenyl)-furo[3,2-b]pyridin-7-yl]-(4-methyl-1H-indol-5-yl)-amine] |  | 0.3 to 3 | < 0.3 | < 0.3 |
| COc1ccc(-c2cc3nccc(-c4ccc(OC)c(OC)c4OC)c3o2)c(OC)c1OC [Compound B40, 2,7-Bis-(2,3,4-trimethoxy-phenyl)-furo[3,2-b]pyridine] |  | 0.3 to 3 | 0.3 to 3 | 3 to 50 |
